# Measured values from patent publication EP2316926B1, “Enantioselective production of alpha-hydroxy carbonyl compounds” (priority 2009, dated 2011).
# Columns and labels:
# Assay type in all cases: biochemical
# Gox0644 [1] = target: T1, Gox0644 (Gluconobacter oxydans, UniProt Q5FT75); assay: NADPH-dependent α-ketocarbonyl reductase activity assay (rate of decrease of NADPH at 340 nm); settings: Table 3; 10 mM substrate, 40 mM K-phosphate buffer pH 7.0, 0.05 mM NAD(P)H, 30 °C; U/mg = µmol x min^-1 x mg protein^-1
# Protocol: Reactions were induced by addition of enzyme or substrate. One unit was defined as the amount of enzyme activity catalyzing the conversion of 1 µmol of pyridine nucleotide per min at 30 °C. NMR Analysis of Biotransformation Products: Biotransformations were extracted with equal volumes of CDCl3. and ^13C NMR spectra were recorded on a Bruker Avance 300 DPX spectrometer operating at 300 MHz for ^1H NMR and at 75 MHz for ^13C NMR, respectively.
# Reactions were induced by addition of enzyme or substrate. One unit of activity was defined as the amount of enzyme activity catalyzing the conversion of 1 µmol of pyridine nucleotide per min at 30 °C.
# The standard reaction mixture (1 ml) for the reduction reactions of substrates contained 10 mM substrate, 40 mM potassium phosphate buffer (K-phosphate buffer) pH 7.0, 0.05 mM NAD(P)H, and the enzyme unless otherwise noted. Reactions were induced by addition of enzyme or substrate. One unit of activity was defined as the amount of enzyme activity catalyzing the conversion of 1 µmol of pyridine nucleotide per min at 30 °C. […] Table 3: Enzymatic activities with α-diketones, α-ketoaldehydes and α-ketoesters
# Gox1615 [2] = target: T2, Gox1615 (Gluconobacter oxydans, UniProt Q5FQJ0); assay: as above
# T2 sequence (Q5FQJ0 1-332): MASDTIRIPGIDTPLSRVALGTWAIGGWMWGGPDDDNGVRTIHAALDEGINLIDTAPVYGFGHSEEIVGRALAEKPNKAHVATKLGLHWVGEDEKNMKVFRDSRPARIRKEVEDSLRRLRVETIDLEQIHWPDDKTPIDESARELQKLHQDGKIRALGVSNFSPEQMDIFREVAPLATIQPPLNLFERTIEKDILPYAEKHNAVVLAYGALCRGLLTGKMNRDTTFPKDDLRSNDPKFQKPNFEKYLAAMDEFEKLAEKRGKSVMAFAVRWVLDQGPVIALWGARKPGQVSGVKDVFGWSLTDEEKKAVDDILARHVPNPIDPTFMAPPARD
# Protocol: Measurement of enzyme activity: NADPH-dependent α-ketocarbonyl reductases were assayed by a routine method used for NAD(P)-linked enzymes by recording the rate of decrease of NADPH at 340 nm (ε = 6.22 mM^-1 x cm^-1)) with substrates at 30 °C. The reaction mixture (1 ml) for reduction of α-ketocarbonyl substrates contained 10 mM substrate, 40 mM potassium phosphate buffer pH 7.0, 0.025 mM NAD(P)H and the enzyme. Reactions were induced by addition of enzyme or substrate. One unit was defined as the amount of enzyme activity catalyzing the conversion of 1 µmol of pyridine nucleotide per min at 30 °C. NMR Analysis of Biotransformation Products: Biotransformations were extracted with equal volumes of CDCl3. and ^13C NMR spectra were recorded on a Bruker Avance 300 DPX spectrometer operating at 300 MHz for ^1H NMR and at 75 MHz for ^13C NMR, respectively. Spectra were processed using Bruker TonSpin 1.3 for Windows software and calibrated to the residual solvent peak of CDCl3 (δH = 7.26 / δC = 77.0).
# NADPH-dependent α-ketocarbonyl reductases were assayed by a routine method used for NAD(P)-linked enzymes by recording the rate of decrease of NADPH at 340 nm (ε = 6.22 mM^-1.cm^-1) with substrates at 30 °C. The reaction mixture (1 ml) for reduction of α-ketocarbonyl substrates contained 10 mM substrate, 40 mM potassium phosphate buffer pH 7.0, 0.025 mM NADPH, and the enzyme. Reactions were induced by addition of enzyme or substrate. One unit of activity was defined as the amount of enzyme activity catalyzing the conversion of 1 µmol of pyridine nucleotide per min at 30 °C.
# Purified NAD(P)-dependent oxidoreductases were assayed at 30 °C by a routine method used for NAD(P)-linked enzymes by recording the rate of decrease of NAD(P)H at 340 nm (ε = 6.22 mM^-1˙cm^-1) with substrates capable of reduction reactions. The standard reaction mixture (1 ml) for the reduction reactions of substrates contained 10 mM substrate, 40 mM potassium phosphate buffer (K-phosphate buffer) pH 7.0, 0.05 mM NAD(P)H, and the enzyme unless otherwise noted. Reactions were induced by addition of enzyme or substrate. One unit of activity was defined as the amount of enzyme activity catalyzing the conversion of 1 µmol of pyridine nucleotide per min at 30 °C. Measurement of the protein content was performed by the method of Bradford (Bradford M.M., Anal. Biochem. 72:248-254 (1976)). Table 3: Enzymatic activities with α-diketones, α-ketoaldehydes and α-ketoesters
# Gox1615 [3] = target: T2, Gox1615; assay: Kinetic constants from purified enzyme by Lineweaver-Burk plots
# Protocol: (§1) Determination of pH and temperature optima and enzyme kinetics: The optimum pH for enzyme activities was determined by a modified method of Salusjärvi, T. et al., Appl. Microbiol. Biotechnol. 65:306-314 (2004) using the following buffer system (50 mM final concentration each): sodium acetate pH 4.5 - 6.5, potassium phosphate pH 6.5 - 8.0, Tris-HCl pH 8.0 - 10. Temperature optima for the biocatalysts were determined under standard reaction conditions at temperatures ranging from 20 - 80 °C. The Michaelis constant (Km) for the proteins was determined from purified enzyme by Lineweaver-Burk plots. Assays were performed at optimum pH for each enzyme and at 30 °C using the best substrate and a targeted substrate. The Km for each substrate was calculated using concentrations of 0.0025 to 10 mM, and the Km NAD(P)H and NAD(P) was calculated using concentrations of 0.01 to 0.5 mM
# (§2) 2.9 Kinetic parameters of the keto carbonyl reductases: Kinetic constants were determined from purified enzyme by Lineweaver-Burk plots. The Km and Vmax values for the substrates were calculated using concentrations of 0.025 to 10 mM. The optimal pH values and temperatures for enzyme activities are also shown in Tab. 8. Table 8: Summary of kinetic parameters
# Gox0644 [4] = target: T1, Gox0644; assay: as above
# Protocol: as §1, §2
smiles,measurement,setting,value
"CCC(=O)C(C)=O [2,3-pentanedione]",Gox0644 U/mg*,Gox0644 [1],69.6 U/mg
same,Gox1615 U/mg*,"Gox1615 [2]; Table 3, 10 mM substrate, 40 mM K-phosphate buffer pH 7.0, 0.05 mM NAD(P)H, 30 °C, U/mg = µmol x min^-1 x mg protein^-1",7.0 U/mg
same,Specific Activity (U/mg)*,"Gox1615 [2]; Table 5, cofactor NADPH, U/mg = µmol/mg·min",7.0 U/mg
same,Vmax,Gox1615 [3],7.0 U/mg protein
same,Vmax,Gox0644 [4],70 U/mg protein
